Source: ChEMBL document CHEMBL5143564, “PES derivative PESA is a potent tool to globally profile cellular targets of PES” (Bioorg Med Chem Lett, 2022)
Activity calls are given as the source filed them.

Columns and labels:
[1] = target: T1, Protein disulfide-isomerase A3 (Homo sapiens) (UniProt P30101); test: Binding affinity to PDIA3 in human DOHH-2 cells by MS analysis; format: cell-based
T1 sequence (whole entry): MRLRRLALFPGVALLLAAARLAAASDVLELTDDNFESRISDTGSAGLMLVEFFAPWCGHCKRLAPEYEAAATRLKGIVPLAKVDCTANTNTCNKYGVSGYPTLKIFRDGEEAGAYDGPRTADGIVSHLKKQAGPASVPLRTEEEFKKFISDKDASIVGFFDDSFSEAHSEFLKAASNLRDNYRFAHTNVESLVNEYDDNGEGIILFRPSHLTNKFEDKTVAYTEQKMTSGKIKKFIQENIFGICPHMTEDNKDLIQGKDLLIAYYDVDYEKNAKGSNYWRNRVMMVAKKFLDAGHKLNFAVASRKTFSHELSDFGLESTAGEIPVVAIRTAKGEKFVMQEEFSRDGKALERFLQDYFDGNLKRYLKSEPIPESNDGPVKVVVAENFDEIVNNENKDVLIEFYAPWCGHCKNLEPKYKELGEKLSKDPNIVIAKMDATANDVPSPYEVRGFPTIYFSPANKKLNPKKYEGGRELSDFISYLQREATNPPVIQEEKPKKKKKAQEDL

[2] = system: DOHH-2; test: Up regulation of HSP70 expression in human DOHH-2 cells at 0.5 to 8 uM measured after 24 hrs by Western blot analysis; format: functional, cell-based; conditions: dose 0.5-8 µM
[3] = target: T2, Peroxiredoxin-5, mitochondrial (Homo sapiens) (UniProt P30044); test: Binding affinity to PRDX5 in human DOHH-2 cells by MS analysis; format: cell-based
T2 sequence (whole entry): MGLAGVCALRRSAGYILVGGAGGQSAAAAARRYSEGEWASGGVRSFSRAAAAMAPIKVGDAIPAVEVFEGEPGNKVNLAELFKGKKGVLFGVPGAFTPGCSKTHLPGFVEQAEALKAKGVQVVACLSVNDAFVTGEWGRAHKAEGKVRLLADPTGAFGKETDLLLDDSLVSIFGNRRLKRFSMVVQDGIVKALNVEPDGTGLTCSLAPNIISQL

[4] = target: T3, Protein disulfide-isomerase A4 (Homo sapiens) (UniProt P13667); test: Binding affinity to PDIA4 in human DOHH-2 cells measured after 6 hrs by pull-down assay; format: cell-based; conditions: DDE = dose-dependent effect
T3 sequence (whole entry): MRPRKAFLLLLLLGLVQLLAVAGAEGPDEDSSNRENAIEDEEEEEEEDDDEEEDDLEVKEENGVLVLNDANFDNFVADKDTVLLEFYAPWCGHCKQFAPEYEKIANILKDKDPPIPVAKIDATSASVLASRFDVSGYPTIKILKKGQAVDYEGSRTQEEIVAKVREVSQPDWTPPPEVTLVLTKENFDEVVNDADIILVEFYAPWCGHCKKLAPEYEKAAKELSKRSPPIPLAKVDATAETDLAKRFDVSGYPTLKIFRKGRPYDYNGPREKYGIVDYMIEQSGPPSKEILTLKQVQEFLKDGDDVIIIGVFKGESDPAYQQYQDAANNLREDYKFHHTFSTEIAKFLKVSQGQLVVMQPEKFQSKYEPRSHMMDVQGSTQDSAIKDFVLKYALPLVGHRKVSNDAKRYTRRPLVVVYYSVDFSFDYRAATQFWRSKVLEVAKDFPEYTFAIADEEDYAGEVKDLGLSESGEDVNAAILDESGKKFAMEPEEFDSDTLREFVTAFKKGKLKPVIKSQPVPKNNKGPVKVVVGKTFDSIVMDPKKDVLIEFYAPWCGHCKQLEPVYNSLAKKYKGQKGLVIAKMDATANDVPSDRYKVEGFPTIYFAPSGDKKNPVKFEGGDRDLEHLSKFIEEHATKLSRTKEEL

[5] = target: T3, Protein disulfide-isomerase A4 (Homo sapiens); test: Binding affinity to PDIA4 in human DOHH-2 cells by MS analysis; format: cell-based
[6] = target: T4, Thioredoxin-dependent peroxide reductase, mitochondrial (Homo sapiens) (UniProt P30048); test: Binding affinity to PRDX3 in human MDA-MB-453 cells measured after 6 hrs by pull-down assay; format: cell-based; conditions: dose <= 20.0 µM, DDE = dose-dependent effect
T4 sequence (whole entry): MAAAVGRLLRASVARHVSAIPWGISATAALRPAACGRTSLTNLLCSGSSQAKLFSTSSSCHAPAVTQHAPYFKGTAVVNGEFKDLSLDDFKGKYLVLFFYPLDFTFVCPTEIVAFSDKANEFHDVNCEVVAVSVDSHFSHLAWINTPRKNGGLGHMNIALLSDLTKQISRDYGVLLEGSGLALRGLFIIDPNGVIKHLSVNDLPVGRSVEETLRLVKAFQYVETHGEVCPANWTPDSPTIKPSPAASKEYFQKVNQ

[7] = organism: Homo sapiens; test: Binding affinity to ADP-bound full-length human HSP70 assessed as Cys574 adduct formation at SBDalpha domain by LC-MS/MS analysis
[8] = system: Jurkat; test: Cytotoxicity against human Jurkat T cells up to 20 uM measured after 24 hrs; format: functional, cell-based
[9] = target: T5, Protein disulfide-isomerase A6 (Homo sapiens) (UniProt Q15084); test: Binding affinity to PDIA6 in human DOHH-2 cells by MS analysis; format: cell-based
T5 sequence (whole entry): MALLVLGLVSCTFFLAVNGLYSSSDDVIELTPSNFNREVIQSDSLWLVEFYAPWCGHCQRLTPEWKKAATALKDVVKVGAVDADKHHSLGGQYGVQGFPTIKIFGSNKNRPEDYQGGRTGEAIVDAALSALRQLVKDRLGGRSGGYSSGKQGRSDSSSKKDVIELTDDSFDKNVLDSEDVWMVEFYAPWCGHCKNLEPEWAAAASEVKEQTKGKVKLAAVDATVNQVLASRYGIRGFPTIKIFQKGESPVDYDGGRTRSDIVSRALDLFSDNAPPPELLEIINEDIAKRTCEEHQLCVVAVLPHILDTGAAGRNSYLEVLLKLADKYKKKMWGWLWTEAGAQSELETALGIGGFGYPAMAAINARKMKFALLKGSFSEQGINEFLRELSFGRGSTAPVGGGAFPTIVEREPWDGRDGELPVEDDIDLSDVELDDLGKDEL

[10] = system: DOHH-2; test: Induction of autophagy in human DOHH-2 cells assessed as reduction in p62 expression at 8 uM measured after 4 to 24 hrs by Western blot analysis; format: functional, cell-based; conditions: time 4-24 hrs
[11] = target: Glutathione S-transferase P (Homo sapiens) (UniProt P09211); test: Binding affinity to GSTP1 in human DOHH-2 cells measured after 6 hrs by pull-down assay; format: cell-based; conditions: DDE = dose-dependent effect
[12] = target: Glutathione S-transferase P (Homo sapiens) (UniProt P09211); test: Binding affinity to GSTP1 in human MDA-MB-453 cells measured after 6 hrs by pull-down assay; format: cell-based; conditions: dose <= 20.0 µM, DDE = dose-dependent effect
[13] = target: Elongation factor 2 (Homo sapiens) (UniProt P13639); test: Binding affinity to elongation factor 2 in human MDA-MB-453 cells measured after 6 hrs by pull-down assay; format: cell-based; conditions: dose <= 20.0 µM, DDE = dose-dependent effect
[14] = target: Tubulin alpha (Homo sapiens) (UniProt P0DPH7+P68366+Q71U36+P68363+Q9BQE3+Q6PEY2+A6NHL2+Q9NY65); test: Binding affinity to alpha-tubulin in human DOHH-2 cells measured after 6 hrs by pull-down assay; format: cell-based; conditions: DDE = dose-dependent effect

Measured: Activity

Chain of Glutathione S-transferase P (Homo sapiens) (P09211 2-210 limits assumed): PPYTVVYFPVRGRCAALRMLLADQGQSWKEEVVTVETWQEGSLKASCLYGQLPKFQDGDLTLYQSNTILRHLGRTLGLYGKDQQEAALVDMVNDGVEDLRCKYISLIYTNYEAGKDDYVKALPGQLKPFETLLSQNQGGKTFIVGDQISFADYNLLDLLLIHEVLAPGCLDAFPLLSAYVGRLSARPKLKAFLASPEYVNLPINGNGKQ

C#Cc1cccc(C#CS(N)(=O)=O)c1
active: [1] | [2] | [3] | [4] Dde | [5] | [6] Dde | [7] | [8] | [9] | [10] | [11] Dde | [12] Dde | [13] Dde | [14] Dde
